# In patent publication US9290451B2 (Hoffmann-La Roche Inc., priority 2011, dated 2016):
# Assays:
# human CB2 receptors = human CB2 receptors (Homo sapiens (Human), UniProt P34972); test: cAMP assay, CHO cells expressing human CB2 receptors; assay type: cell-based; conditions: CHO cells expressing human CB2, cAMP; read-out: human CB2 EC50
# Description: (§1) CHO cells expressing human CB1 or CB2 receptors are seeded 17-24 hours prior to the experiment 50.000 cells per well in a black 96 well plate with flat clear bottom (Corning Costar #3904) in DMEM (Invitrogen No. 31331), 1×HT supplement, with 10% fetal calf serum and incubated at 5% CO2 and 37° C. in a humidified incubator. The growth medium was exchanged with Krebs Ringer Bicarbonate buffer with 1 mM IBMX and incubated at 30° C. for 30 min Compounds were added to a final assay volume of 100 μl and incubated for 30 min at 30° C. Using the cAMP-Nano-TRF detection kit the assay (Roche Diagnostics) was stopped by the addition of 50 μl lysis reagent (Tris, NaCl, 1.5% Triton X100, 2.5% NP40, 10% NaN3) and 50 μl detection solutions (20 μM mAb Alexa700-cAMP 1:1, and 48 μM Ruthenium-2-AHA-cAMP) and shaken for 2 h at room temperature. The time-resolved energy transfer is measured by a TRF reader (Evotec Technologies GmbH), equipped with a ND:YAG laser as excitation source. The plate is measured twice with the excitation at 355 nm and at the emission with a delay of 100 ns and a gate of 100 ns, total exposure time 10 s at 730 (bandwidth 30 nm) or 645 nm (bandwidth 75 nm), respectively. The FRET signal is calculated as follows: FRET=T730-Alexa730-P(T645-B645) with P═Ru730-B730/Ru645-B645, where T730 is the test well measured at […], T645 is the test well measured at 645 nm, B730 and B645 are the buffer controls at 730 nm and 645 nm, respectively. cAMP content is determined from the function of a standard curve spanning from 10 μM to 0.13 nM cAMP.
# (§2) EC50 values were determined using Activity Base analysis (ID Business Solution, Limited). The EC50 values for a wide range of cannabinoid agonists generated from this assay for reference compounds were in agreement with the values published in the scientific literature.
# human CB1 receptors = human CB1 receptors (Homo sapiens (Human), UniProt P21554); test: cAMP assay, CHO cells expressing human CB1 receptors; assay type: cell-based; conditions: CHO cells expressing human CB1, cAMP; read-out: human CB1 EC50
# Description: as §1, §2
# Chain of human CB1 receptors (P21554 whole entry): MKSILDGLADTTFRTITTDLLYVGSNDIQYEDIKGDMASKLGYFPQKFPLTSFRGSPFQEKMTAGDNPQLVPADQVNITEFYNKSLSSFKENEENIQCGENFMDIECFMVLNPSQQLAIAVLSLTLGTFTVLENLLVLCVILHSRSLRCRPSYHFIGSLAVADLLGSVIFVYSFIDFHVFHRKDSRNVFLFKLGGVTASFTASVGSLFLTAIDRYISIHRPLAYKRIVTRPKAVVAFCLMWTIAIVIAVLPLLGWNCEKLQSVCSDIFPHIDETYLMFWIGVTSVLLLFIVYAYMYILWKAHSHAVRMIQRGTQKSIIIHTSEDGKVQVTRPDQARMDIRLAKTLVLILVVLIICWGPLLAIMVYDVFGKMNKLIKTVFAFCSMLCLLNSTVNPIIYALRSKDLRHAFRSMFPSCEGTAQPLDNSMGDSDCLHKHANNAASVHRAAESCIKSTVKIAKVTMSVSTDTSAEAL
# Chain of human CB2 receptors (P34972 whole entry): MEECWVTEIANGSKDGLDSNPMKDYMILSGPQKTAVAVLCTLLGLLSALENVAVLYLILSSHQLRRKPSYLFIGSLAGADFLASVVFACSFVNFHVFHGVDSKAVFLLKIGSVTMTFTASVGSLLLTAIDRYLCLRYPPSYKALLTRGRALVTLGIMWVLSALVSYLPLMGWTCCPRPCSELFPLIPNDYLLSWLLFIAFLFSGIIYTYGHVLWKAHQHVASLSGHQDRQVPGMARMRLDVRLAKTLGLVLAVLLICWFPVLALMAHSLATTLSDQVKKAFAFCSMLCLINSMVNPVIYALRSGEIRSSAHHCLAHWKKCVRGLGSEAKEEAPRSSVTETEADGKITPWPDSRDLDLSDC
SMILES,EC50 (human CB2 receptors) [nM],EC50 (human CB1 receptors) [nM]
"O=C(N[C@H](c1cccnc1)C(F)(F)F)c1ccc(N2CC(F)(F)C2)c(OCC2CC2)n1 [Example 237, 6-Cyclopropylmethoxy-5-(3,3-difluoro-azetidin-1-yl)-pyridine-2-carboxylic acid ((R)-2,2,2-trifluoro-1-pyridin-3-yl-ethyl)-amide]",97.5,> 10000
"Cc1nc(C(C)(C)NC(=O)c2cccc(-c3ccc(Cl)cc3)n2)no1 [Example 3, 6-(4-Chloro-phenyl)-pyridine-2-carboxylic acid [1-methyl-1-(5-methyl-[1,2,4]oxadiazol-3-yl)-ethyl]-amide]",341,> 10000
"NC(=O)[C@@H](NC(=O)c1ccc(C2CC2)c(OCC2CC2)n1)C1CC1 [Example 374, 5-Cyclopropyl-6-cyclopropylmethoxy-pyridine-2-carboxylic acid ((+)-carbamoyl-cyclopropyl-methyl)-amide]",28.1,> 10000
"CC(C)C[C@H](NC(=O)c1ccc(C2CC2)c(S(=O)(=O)CC(C)C)n1)C(N)=O [Example 351, 5-Cyclopropyl-6-(2-methyl-propane-1-sulfonyl)-pyridine-2-carboxylic acid ((S)-1-carbamoyl-3-methyl-butyl)-amide]",39.9,> 10000
"CCC(CC)(NC(=O)c1ccc(C2CC2)c(O[C@H](CCO)C(F)(F)F)n1)C(=O)NC [Example 313, 5-Cyclopropyl-6-((R)-3-hydroxy-1-trifluoromethyl-propoxy)-pyridine-2-carboxylic acid (1-ethyl-1-methylcarbamoyl-propyl)-amide]",981,> 10000
"CC(C)(C)OC(=O)N(CC1CC1)NC(=O)c1ccc(C2CC2)c(OCC2CC2)n1 [Example 363, N′-(5-Cyclopropyl-6-cyclopropylmethoxy-pyridine-2-carbonyl)-N-cyclopropylmethyl-hydrazinecarboxylic acid tert-butyl ester]",38,> 10000
"CCN(C)C(=O)C(CC)(CC)NC(=O)c1ccc(C2CC2)c(OCC2CC2)n1 [Example 276, 5-Cyclopropyl-6-cyclopropylmethoxy-pyridine-2-carboxylic acid [1-ethyl-1-(ethyl-methyl-carbamoyl)-propyl]-amide]",24.6,> 10000
"Cc1nc(C(C)(C)NC(=O)c2ccc(C3CC3)c(OCC3CC3)n2)no1 [Example 45, 5-Cyclopropyl-6-cyclopropylmethoxy-pyridine-2-carboxylic acid [1-methyl-1-(5-methyl-[1,2,4]oxadiazol-3-yl)-ethyl]-amide]",87.1,1060
"COCCOc1nc(C(=O)NC(C)(C)c2noc(C)n2)ccc1C1CC1 [Example 153, 5-Cyclopropyl-6-(2-methoxy-ethoxy)-pyridine-2-carboxylic acid [1-methyl-1-(5-methyl-[1,2,4]oxadiazol-3-yl)-ethyl]-amide]",293,> 10000
"Cc1nc(C(C)(C)NC(=O)c2ccc3c(n2)CC(C)(C)CC3)no1 [Example 144, 7,7-dimethyl-N-(2-(5-methyl-1,2,4-oxadiazol-3-yl)propan-2-yl)-5,6,7,8-tetrahydroquinoline-2-carboxamide]",22.8,739
"O=C(N[C@H](c1cccnc1)C(F)(F)F)c1ccc(C2CC2)c(OCC2CC2)n1 [Example 218, (R)-5-Cyclopropyl-6-(cyclopropylmethoxy)-N-(2,2,2-trifluoro-1-(pyridin-3-yl)ethyl)-picolinamide]",24.1,> 10000
"CNC(=O)[C@@H](NC(=O)c1cccc(-c2cccc(Cl)c2)n1)C(C)(C)C [Example 192, (S)-6-(3-Chlorophenyl)-N-(3,3-dimethyl-1-(methylamino)-1-oxobutan-2-yl)picolinamide]",64.2,1540
"CC(C)C[C@H](NC(=O)c1ccc(N2CC(F)(F)C2)c(OCC2CC2)n1)C(=O)N1CC(F)(F)C1 [Example 311, 6-Cyclopropylmethoxy-5-(3,3-difluoro-azetidin-1-yl)-pyridine-2-carboxylic acid [(S)-1-(3,3-difluoro-azetidine-1-carbonyl)-3-methyl-butyl]-amide]",8.4,> 10000
"Cc1nc(C(C)(C)NC(=O)c2ccc(N3CC(=O)C3)c(OCC3CC3)n2)no1 [Example 322, 6-Cyclopropylmethoxy-5-(3-oxo-azetidin-1-yl)-pyridine-2-carboxylic acid [1-methyl-1-(5-methyl-[1,2,4]oxadiazol-3-yl)-ethyl]-amide]",424,> 10000
"O=C(N[C@H](c1ccccn1)C(F)(F)F)c1cccc(Cc2ccc(F)cc2)n1 [Example 278, 6-(4-Fluoro-benzyl)-pyridine-2-carboxylic acid ((R)-2,2,2-trifluoro-1-pyridin-2-yl-ethyl)-amide]",20.2,357
"CC(C)C[C@H](NC(=O)c1cccc(C(O)c2ccc(F)cc2)n1)C(N)=O (stereo partly drawn) [Example 317, 6-[(4-Fluoro-phenyl)-hydroxy-methyl]-pyridine-2-carboxylic acid ((S)-1-carbamoyl-3-methyl-butyl)-amide]",24.2,> 10000
"NC(=O)[C@H](CC1CC1)NC(=O)c1ccc(NC2CC2)c(OCC2CC2)n1 [Example 133, 5-Cyclopropylamino-6-cyclopropylmethoxy-pyridine-2-carboxylic acid ((S)-1-carbamoyl-2-cyclopropyl-ethyl)-amide]",37.7,> 10000
"CCC(CC)(NC(=O)c1ccc(N2CC(F)(F)C2=O)c(OCC2CC2)n1)C(=O)OC [Example 269, 2-{[6-Cyclopropylmethoxy-5-(3,3-difluoro-2-oxo-azetidin-1-yl)-pyridine-2-carbonyl]-amino}-2-ethyl-butyric acid methyl ester]",47.3,> 10000
"CC(C)C[C@H](NC(=O)c1cccc(S(=O)(=O)CC(C)C)n1)C(N)=O [Example 330, 6-(2-Methyl-propane-1-sulfonyl)-pyridine-2-carboxylic acid ((S)-1-carbamoyl-3-methyl-butyl)-amide]",869,> 10000
"Cc1nc([C@H](CC2CC2)NC(=O)c2ccc(C3CC3)c(S(=O)(=O)CC(C)C)n2)no1 [Example 352, 5-Cyclopropyl-6-(2-methyl-propane-1-sulfonyl)-pyridine-2-carboxylic acid [(S)-2-cyclopropyl-1-(5-methyl-[1,2,4]oxadiazol-3-yl)-ethyl]-amide]",189,> 10000
"CC(C)CC(NC(=O)c1ccc(N2CC(F)(F)C2)c(OCC2CC2)n1)c1ccccn1 (stereo not drawn) [Example 315, 6-Cyclopropylmethoxy-5-(3,3-difluoro-azetidin-1-yl)-pyridine-2-carboxylic acid (3-methyl-1-pyridin-2-yl-butyl)-amide]",191,2320
"N#C[C@H](NC(=O)c1ccc(C2CC2)c(OCC2CC2)n1)C1CC1 [Example 248, 5-Cyclopropyl-6-cyclopropylmethoxy-pyridine-2-carboxylic acid ((+)-cyano-cyclopropyl-methyl)-amide]",51,> 10000
"CNC(=O)[C@H](CC(C)(C)C)NC(=O)c1ccc(C2CC2)c(OCC2CC2)n1 [Example 182, (S)-5-Cyclopropyl-6-(cyclopropylmethoxy)-N-(4,4-dimethyl-1-(methylamino)-1-oxopentan-2-yl)picolinamide]",1.7,> 10000
"O=C(Nc1ccccc1)c1cccc(-c2cccc(Cl)c2)n1 [Example 19, 6-(3-Chloro-phenyl)-pyridine-2-carboxylic acid phenylamide]",415,> 10000
"CNC(=O)[C@H](CC(C)C)NC(=O)c1ccc(C2CC2)c(OCC2CCOCC2)n1 [Example 203, (S)-5-Cyclopropyl-N-(4-methyl-1-(methylamino)-1-oxopentan-2-yl)-6-((tetrahydro-2H-pyran-4-yl)methoxy)picolinamide]",2.7,74.9
"Cc1cnc(C(C)(C)NC(=O)c2ccc(C3CC3)c(OCC3CC3)n2)s1 [Example 350, 5-Cyclopropyl-6-cyclopropylmethoxy-pyridine-2-carboxylic acid [1-methyl-1-(5-methyl-thiazol-2-yl)-ethyl]-amide]",3.6,> 10000
"CN(C)C(=O)[C@H](CC1CC1)NC(=O)c1ccc(C2CC2)c(OCC2CC2)n1 [Example 222, 5-Cyclopropyl-6-cyclopropylmethoxy-pyridine-2-carboxylic acid ((S)-2-cyclopropyl-1-dimethylcarbamoyl-ethyl)-amide]",3.2,> 10000
